Assay results taken from patent US11161837B2, “Benzofuran derivatives for the treatment of hepatitis C” (BRISTOL-MYERS SQUIBB COMPANY, priority 2016, dated 2021).

Assays:
[1] = molecular target: T1, NS5B proteins of HCV genotype 1b (Con1) (Hepatitis C virus genotype 1b, UniProt Q9WMX2); assay: HCV NS5B RdRp enzyme assay; assay type: biochemical; conditions: 1b enzyme
T1 construct: Each untagged protein was expressed with an 18 amino acid C-terminal truncation to enhance the solubility; made in house; host or cells: E. coli BL21(DE3), pET21a
Method: HCVNS5B RdRp Cloning, Expression, and Purification.
The cDNA encoding NS5B proteins of HCV genotype 1b (Con1), a genotype 1b variant with amino acid 316 mutated from cysteine to asparagine, and genotype 2a (JFH-1), were cloned into the pET21a expression vector. Each untagged protein was expressed with an 18 amino acid C-terminal truncation to enhance the solubility. The E. coli competent cell line BL21(DE3) was used for expression of the protein. Cultures were grown at 37° C. for ˜4 hours until the cultures reached an optical density of 2.0 at 600 nm. The cultures were cooled to 20° C. and induced with 1 mM IPTG. Fresh ampicillin was added to a final concentration of 50 μg/mL and the cells were grown overnight at 20° C.
Cell pellets (3 L) were lysed for purification to yield 15-24 mgs of purified NS5B. The lysis buffer consisted of 20 mM Tris-HCl, pH 7.4, 500 mM NaCl, 0.5% triton X-100, 1 mM DTT, 1 mM EDTA, 20% glycerol, 0.5 mg/mL lysozyme, 10 mM MgCl2, 15 ug/mL deoxyribonuclease I, and Complete TM protease inhibitor tablets (Roche). After addition of the lysis buffer, frozen cell pellets were resuspended using a tissue homogenizer. To reduce the viscosity of the sample, aliquots of the lysate were sonicated on ice using a microtip attached to a Branson sonicator. The sonicated lysate was centrifuged at 100,000×g for 30 minutes at 4° C. and filtered through a 0.2 μm filter unit (Corning).
The protein was purified using two sequential chromatography steps: Heparin sepharose CL-6B and polyU sepharose 4B. The chromatography buffers were identical to the lysis buffer but contained no lysozyme, deoxyribonuclease I, MgCl2 or protease inhibitor and the NaCl concentration of the buffer was adjusted according to the requirements for charging the protein onto the column. Each column was eluted with a NaCl gradient which varied in length from 5-50 column volumes depending on the column type. After the final chromatography step, the resulting purity of the enzyme is >90% based on SDS-PAGE analysis. The enzyme was aliquoted and stored at −80° C.
HCVNS5B RdRp Enzyme Assay.
An on-bead solid phase homogeneous assay was used in a 384-well format to assess NS5B inhibitors (WangY-K, Rigat K, Roberts S, and Gao M (2006) Anal Biochem, 359: 106-111). The biotinylated oligo dT12 primer was captured on streptavidin-coupled imaging beads (GE, RPNQ0261) by mixing primer and beads in 1× buffer and incubating at room temperature for three hours. Unbound primer was removed after centrifugation. The primer-bound beads were resuspended in 3× reaction mix (20 mM Hepes buffer, pH 7.5, dT primer coupled beads, poly A template, ^3H-UTP, and RNAse inhibitor (Promega N2515)). Compounds were serially diluted 1:3 in DMSO and aliquoted into assay plates. Equal volumes (10 μL) of water, 3× reaction mix, and enzyme in 3× assay buffer (60 mM Hepes buffer, pH 7.5, 7.5 mM MgCl2, 7.5 mM KCl, 3 mM DTT, 0.03 mg/mL BSA, 6% glycerol) were added to the diluted compound on the assay plate. Final concentration of components in 384-well assay: 0.36 nM template, 15 nM primer, 0.29 μM ^3H-UTP (0.3 μCi), 1.6 U/μL RNAse inhibitor, 7 nM NS5B enzyme, 0.01 mg/mL BSA, 1 mM DTT, and 0.33 μg/μL beads, 20 mM Hepes buffer, pH 7.5, 2.5 mM MgCl2, 2.5 mM KCl, and 0.1% DMSO.
Reactions were allowed to proceed from 4 to 24 hours at 30° C. For 24 hour reactions, enzyme and inhibitors were pre-incubated for 24 hours before adding template and primer. Reactions were terminated by the addition of 50 mM EDTA (10 μL). After incubating for at least 15 minutes, plates were read on an Amersham LEADseeker multimodality imaging system.
IC50 values for compounds were determined using ten different [I]. IC50 values were calculated from the inhibition using the four-parameter logistic formula y=A+((B−A)/(1+((C/x)^D))), where A and B denote minimal and maximal % inhibition, respectively, C is the IC50, D is hill slope and x represents compound concentration.

[2] = system: genotype 1b (Con-1) HCV replicon in Huh-7 cells; assay: HCV replicon luciferase assay; assay type: cell-based; conditions: 1b replicon, Huh-7, Renilla luciferase, 3 days incubation
Summary of the method: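 Huh-7 cells carrying Con-1 genotype 1b replicon with Renilla luciferase reporter seeded onto titrated compound in DMEM, 4% FBS, 0.5% DMSO, 3 days at 37 °C. Luciferase read with EnduRen substrate (7.5 μM final) after ≥1 h; EC50 by four-parameter logistic fit.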

T1 sequence (Q9WMX2 2420-2992): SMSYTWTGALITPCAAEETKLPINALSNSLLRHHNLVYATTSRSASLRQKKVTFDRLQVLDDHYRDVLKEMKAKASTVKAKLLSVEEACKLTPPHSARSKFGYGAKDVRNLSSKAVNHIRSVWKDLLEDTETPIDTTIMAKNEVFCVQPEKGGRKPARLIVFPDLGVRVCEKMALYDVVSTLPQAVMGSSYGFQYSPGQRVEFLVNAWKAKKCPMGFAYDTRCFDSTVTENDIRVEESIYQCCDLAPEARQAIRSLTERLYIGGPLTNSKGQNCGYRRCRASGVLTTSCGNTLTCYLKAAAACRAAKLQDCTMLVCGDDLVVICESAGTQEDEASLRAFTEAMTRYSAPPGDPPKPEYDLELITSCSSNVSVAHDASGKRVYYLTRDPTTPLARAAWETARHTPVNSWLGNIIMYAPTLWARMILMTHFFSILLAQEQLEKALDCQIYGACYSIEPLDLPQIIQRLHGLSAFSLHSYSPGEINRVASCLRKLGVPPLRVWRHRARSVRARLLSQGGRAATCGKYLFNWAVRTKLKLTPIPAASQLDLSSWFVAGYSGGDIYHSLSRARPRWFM

SMILES	IC50 [1] [nM]	EC50 [2] [nM]	EC50 ([2]; Hepatitis C virus, Huh-7, 72 h) [nM]
CNC(=O)c1c(-c2ccc(F)cc2)oc2ccc(-c3cc(C(=O)NC4(c5ncccn5)CC(OC)C4)cc(F)c3C)c(F)c12 (single isomer, unassigned) [Example 11b, 4-Fluoro-5-(3-fluoro-5-((3-methoxy-1-(pyrimidin-2-yl)cyclobutyl)carbamoyl)-2-methylphenyl)-2-(4-fluorophenyl)-N-methylbenzofuran-3-carboxamide]	30	4.56	
CCCc1cc2oc(-c3ccc(F)cc3)c(C(=O)NC)c2cc1-c1ccc(F)c(C(=O)NC2(c3ncccn3)CC(OC(F)(F)F)C2)c1 (single isomer, unassigned) [Example 48b, 5-(4-Fluoro-3-((1-(pyrimidin-2-yl)-3-(trifluoromethoxy)cyclobutyl)carbamoyl)phenyl)-2-(4-fluorophenyl)-N-methyl-6-propylbenzofuran-3-carboxamide]	8.27	10	
CNC(=O)c1c(-c2ccc(F)cc2)oc2cc(NCC(F)(F)F)c(-c3cccc(C(=O)NC4(c5ncccn5)CC(OC(F)F)C4)c3)cc12 (single isomer, unassigned) [Example 65a]	4.55	8.72	
CNC(=O)c1c(-c2ccc(F)cc2)oc2cc(CCC(F)(F)F)c(-c3ccc(OC)c(C(=O)NC4(c5ncccn5)CC(OC(F)(F)F)C4)c3)cc12 (single isomer, unassigned) [Example 47b, 2-(4-Fluorophenyl)-5-(4-methoxy-3-((1-(pyrimidin-2-yl)-3-(trifluoromethoxy)cyclobutyl)carbamoyl)phenyl)-N-methyl-6-(3,3,3-trifluoropropyl)benzofuran-3-carboxamide]	10	10	
CNC(=O)c1c(-c2ccc(F)cc2)oc2ccc(-c3cc(C(=O)NC4(c5ncccn5)CC(OC)C4)cc(F)c3C)c(F)c12 (single isomer, unassigned) [Example 11a, 4-Fluoro-5-(3-fluoro-5-((3-methoxy-1-(pyrimidin-2-yl)cyclobutyl)carbamoyl)-2-methylphenyl)-2-(4-fluorophenyl)-N-methylbenzofuran-3-carboxamide]	90	40	
CCCc1cc2oc(-c3ccc(F)cc3)c(C(=O)NC)c2cc1-c1cc(C(=O)NC2(C)CC(OC(F)F)C2)c(OC)cc1C (single isomer, unassigned) [Example 57a, 5-(5-((3-(Difluoromethoxy)-1-methylcyclobutyl)carbamoyl)-4-methoxy-2-methylphenyl)-2-(4-fluorophenyl)-N-methyl-6-propylbenzofuran-3-carboxamide]	10		50
CCN(c1cc2oc(-c3ccc(F)cc3)c(C(=O)NC)c2cc1-c1cccc(C(=O)NC2(c3ncccn3)CC(F)C2)c1)S(C)(=O)=O (centres unmarked) [Example 25, 6-(N-ethylmethylsulfonamido)-5-(3-((3-fluoro-1-(pyrimidin-2-yl)cyclobutyl)carbamoyl)phenyl)-2-(4-fluorophenyl)-N-methylbenzofuran-3-carboxamide]	1.37		5.29
CNC(=O)c1c(-c2ccc(F)cc2)oc2cc(NCC(F)(F)F)c(-c3cccc(C(=O)NC4(c5ncccn5)CC(OC(F)F)C4)c3)cc12 (single isomer, unassigned) [Example 65b]	4.73	4.23	
CCOc1cc2oc(-c3ccc(F)cc3)c(C(=O)NC)c2cc1-c1cccc(C(=O)NC2(c3ncccn3)CC(OC(F)F)C2)c1 (single isomer, unassigned) [Example 67b, 5-(3-((3-(Difluoromethoxy)-1-(pyrimidin-2-yl)cyclobutyl)carbamoyl)phenyl)-6-ethoxy-2-(4-fluorophenyl)-N-methylbenzofuran-3-carboxamide]	2.11	6.8	
CNC(=O)c1c(-c2ccc(F)cc2)oc2ccc(-c3cc(C(=O)NC4(c5ncccn5)CC(OC)(OC)C4)ccc3C)c(F)c12 [Example 7, 5-(5-((3,3-Dimethoxy-1-(pyrimidin-2-yl)cyclobutyl)carbamoyl)-2-methylphenyl)-4-fluoro-2-(4-fluorophenyl)-N-methylbenzofuran-3-carboxamide]	10		60
CNC(=O)c1c(-c2ccc(F)cc2)oc2ccc(-c3cc(C(=O)NC4(c5ncccn5)CC(F)C4)cc(F)c3C)c(F)c12 (centres unmarked) [Example 20, 4-Fluoro-5-(3-fluoro-5-(3-fluoro-1-(pyrimidin-2-yl)cyclobutylcarbamoyl)-2-methylphenyl)-2-(4-fluorophenyl)-N-methylbenzofuran-3-carboxamide]	90		6.16
CNC(=O)c1c(-c2ccc(F)cc2)oc2ccc(-c3cc(C(=O)NC4(c5ncccn5)CC(F)C4)c(OC)cc3C)c(F)c12 (centres unmarked) [Example 19, 4-Fluoro-5-(5-(3-fluoro-1-(pyrimidin-2-yl)cyclobutylcarbamoyl)-4-methoxy-2-methylphenyl)-2-(4-fluorophenyl)-N-methylbenzofuran-3-carboxamide]	120		5.26
CNC(=O)c1c(-c2ccc(F)cc2)oc2ccc(-c3cc(C(=O)NC4(c5ncccn5)CC(OC)C4)c(OC)cc3C)c(F)c12 (single isomer, unassigned) [Example 13b, 4-Fluoro-2-(4-fluorophenyl)-5-(4-methoxy-5-((3-methoxy-1-(pyrimidin-2-yl)cyclobutyl)carbamoyl)-2-methylphenyl)-N-methylbenzofuran-3-carboxamide]	20	6.44	
CNC(=O)c1c(-c2ccc(F)cc2)oc2ccc(-c3cc(C(=O)NC4(c5ncccn5)CC(=O)C4)ccc3C)c(F)c12 [Example 6, 4-Fluoro-2-(4-fluorophenyl)-N-methyl-5-(2-methyl-5-((3-oxo-1-(pyrimidin-2-yl)cyclobutyl)carbamoyl)phenyl)benzofuran-3-carboxamide]	10		20
CNC(=O)c1c(-c2ccc(F)cc2)oc2cc(CCC(F)(F)F)c(-c3ccc(F)c(C(=O)NC4(c5ncccn5)CC(OC(F)F)C4)c3)cc12 (centres unmarked) [Example 42, 5-(3-((3-(Difluoromethoxy)-1-(pyrimidin-2-yl)cyclobutyl)carbamoyl)-4-fluorophenyl)-2-(4-fluorophenyl)-N-methyl-6-(3,3,3-trifluoropropyl)benzofuran-3-carboxamide]	7.6		5.73
CNC(=O)c1c(-c2ccc(F)cc2)oc2cc(CCC(F)(F)F)c(-c3ccc(F)c(C(=O)NC4(c5ncccn5)CC(OC(F)(F)F)C4)c3)cc12 (single isomer, unassigned) [Example 49b, 5-(4-Fluoro-3-((1-(pyrimidin-2-yl)-3-(trifluoromethoxy)cyclobutyl)carbamoyl)phenyl)-2-(4-fluorophenyl)-N-methyl-6-(3,3,3-trifluoropropyl)benzofuran-3-carboxamide]	10	20	
